“Also recorded” adds a separate entry of the source.
Columns and labels:
[1] = Toxicity / tolerance of dosing in mice; type: in vivo
Method: Study 1 was performed by dose escalation of SC HBB from 4 mg/kg qd to 12 mg/kg qd with female CD-1 mice (Envigo) approximately 4-8 weeks of age. N=5 mice per HBB dose group, n=10 naïve control mice.
Study 2 two was performed by dose escalation of SC HBB from 16 mg/kg qd to 24 mg/kg qd with female BALB/c mice (Envigo) approximately 6-8 weeks of age. N=4 mice per HBB dose group, n=3 naïve control mice
Study 3 was performed by dose escalation of SC HBB from 16 mg/kg qd to 24 mg/kg qd with female C57BL/6 mice (CR) approximately 6-8 weeks of age. N=12 for HBB dose group, n=3 naïve control mice.

mm001 = assay: Oxygen consumption rate (OCR), mm001; type: cell-based, mouse (C57BL/6)
Method: Measurement of oxygen consumption rate (OCR). Cells were maintained in growth medium consisting of 10% FBS at 37° C. with 5% CO2 and seeded at 25,000 cells per well in a 96-well XF96 cell culture microplates (Agilent, Santa Clara, CA). An 96 well XF sensor cartridge was hydrated and equilibrated with 200 ul calibrant in each well at 37° C. without CO2 overnight. Growth media was replaced with 150 μL DMEM based assay media (a non-buffered medium including 2 mM L-glutamine but no sodium bicarbonate (buffering agent), glucose, or sodium pyruvate, Agilent, Santa Clara, CA) the next day and cells were incubated CO2 free for 1 hour before the measurement of OCR by a Seahorse XFe Extracellular Flux Analyzer (Agilent, Santa Clara, CA), which measures uptake and excretion of metabolic end products in real time. After baseline measurements, 20 μl assay medium containing control vehicle or drugs were injected into corresponding wells. OCRs were measured periodically and can be reported in pmoles/minute or normalized against baseline measurements before treatment.

MCF-7 cells = assay: Mitochondrial swelling, JC-1 confocal imaging in MCF-7 cells; type: cell-based, human; conditions: 10 μM, FIG. 5
Method: FIG. 5. Mitochondrial swelling by HCB treatment in MCF-7 cells. MCF-7 cells were seeded at 30,000 cells/well into a chambered coverslip and treated with HCB or DMSO for 2 hours. JC-1 potential sensitive dye was added to a final concentration of 20 μM and incubation continued for an additional half an hour. Cell was then washed and imaged with a confocal microscope. Active mitochondria are stained yellow to orange. White arrows indicate swollen mitochondria.

ERα = assay: Nuclear translocation of ERα in MCF-7 cells; type: cell-based, human; conditions: 10 μM, 2 hours, FIG. 6
Method: FIG. 6. […] A. representative images (Blue: nuclei; Red: ERα) from an experiment. B. Percentage change of nuclear ERα density normalized to nuclear DNA stained by Hoechst. MCF-7 cells (1.5×10^4 cells/well) were seeded on uSlide (8 wells, Ibidi, cat #80826) and cultured with complete culture medium (MEM medium with Earle's salts & L-glutamine) containing 10% FBS, 10 mM HEPES, 2 mM glutamine and 100 U penicillin and 100 U streptomycin for almost 70 hours. Then the cells were starved in serum, phenol red and antibiotics free MEM medium for almost 16 hours, followed with HCB (10 μM) or vehicle (0.01% DMSO) treatment for 2 hours in starvation medium. Then the cells were fixed, permeabilized and probed with monoclonal antibody against ERα (Abcam, Cat #16660, primary antibody) and Texas Red-conjugated goat anti rabbit IgG (Thermo Fisher Scientific, Cat #T-6391, secondary antibody). Nuclei were stained with Hoechst dye (Thermo Scientific, Cat #62249). The nuclear ERαas were analyzed with confocal microscopy. Four sites per well were selected randomly for collecting the image data. The density of fluorescence was measured by ImageJ. […] Intensities of lights in each ROI were measured in the blue channel (nuclei) and red (Texas red, estrogen receptor α) channel. […] Results normalized to control are expressed as means±S.D. (n=7). […]

CYP3A4 = CYP3A4 (Homo sapiens, UniProt P08684); assay: CYP3A4 binding by Soret band spin shift analysis; conditions: FIG. 16, read-out: estimated Kd
Chain of CYP3A4 (P08684 with tags, fused parts or gaps): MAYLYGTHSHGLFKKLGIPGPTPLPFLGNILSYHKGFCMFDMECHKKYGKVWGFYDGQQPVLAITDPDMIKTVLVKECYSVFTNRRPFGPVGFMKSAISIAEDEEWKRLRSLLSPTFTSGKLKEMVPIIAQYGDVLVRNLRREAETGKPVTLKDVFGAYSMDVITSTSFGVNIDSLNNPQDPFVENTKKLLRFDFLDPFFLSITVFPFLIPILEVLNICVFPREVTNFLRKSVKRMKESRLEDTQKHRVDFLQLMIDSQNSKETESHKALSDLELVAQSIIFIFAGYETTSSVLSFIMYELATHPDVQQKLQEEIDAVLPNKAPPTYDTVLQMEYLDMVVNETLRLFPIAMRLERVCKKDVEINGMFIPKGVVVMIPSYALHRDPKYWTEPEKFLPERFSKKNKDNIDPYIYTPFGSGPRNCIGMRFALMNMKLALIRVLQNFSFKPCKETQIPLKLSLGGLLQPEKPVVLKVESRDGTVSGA
Method: HCB induces a low-to-high spin transition in 3A4, meaning that it binds within the active site near the heme (FIG. 16).
A. HBB binds soluble CYP3A4 Δ3-22, dependent on the heme iron. The HBB binding spectrum is shown in red. Control spectra with dithionite reduction (blue) and CO adduct formation (green) are shown as well as untreated CYP3A4 Δ3-22 (black). B. HBB docked to truncated CYP3A4 Δ3-22 induces a low to high spin shift (left) with a Ks=74±7 μM (right). (FIG. 16)

CYP2C8 = molecular target: T1, CYP2C8 (Homo sapiens, UniProt P10632); assay: Stability with recombinant human CYP2C8; type: in vitro ADME; conditions: 10 μM HCB, recombinant human CYP2C8, NADPH 2 mM
T1 construct: purchased Corning; host or cells: insect cells (microsomes)
T1 sequence (P10632 1-490): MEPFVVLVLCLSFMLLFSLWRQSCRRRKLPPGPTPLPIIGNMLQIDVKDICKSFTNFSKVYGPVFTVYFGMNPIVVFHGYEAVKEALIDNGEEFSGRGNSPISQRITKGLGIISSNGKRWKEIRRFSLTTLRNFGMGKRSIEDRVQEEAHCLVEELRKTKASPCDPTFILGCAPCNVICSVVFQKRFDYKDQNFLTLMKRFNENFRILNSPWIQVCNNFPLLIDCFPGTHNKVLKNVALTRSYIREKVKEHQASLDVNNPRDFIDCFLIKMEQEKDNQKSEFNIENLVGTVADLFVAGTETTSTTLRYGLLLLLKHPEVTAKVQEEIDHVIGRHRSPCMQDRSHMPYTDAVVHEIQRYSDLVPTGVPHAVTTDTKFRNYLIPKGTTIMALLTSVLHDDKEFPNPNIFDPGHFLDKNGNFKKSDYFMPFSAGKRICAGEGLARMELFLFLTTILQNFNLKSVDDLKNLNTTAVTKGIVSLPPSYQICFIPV
Method: Stability of HCB with recombinant human CYP3A4 and CYP2C8 enzymes was evaluated. 10 μM HCB was tested wich CYP3A4 and 2C8 (200 pmol/L) (Table 8). NADPH (2 mM) was added as a cofactor. Total volume was 200 μL.
HCB was incubated for 0, 30, or 60 min at 37° C. Incubations were quenched with 2 volumes of acetonitrile followed by centrifugation for 10 min at 16,000 g.

SMILES | tolerance of daily SC dosing above 12 mg/kg ([1]; SC 16 to 24 mg/kg qd, female BALB/c mice, FIG. 21) | tolerance of dose escalation ([1]; daily SC 4 to 12 mg/kg over approximately 2 months, female CD-1 mice, FIG. 20) | MTD ([1]; female, CD-1 (Study 1), BALB/c (Study 2), C57BL/6 (Study 3), mouse, in vivo, sc, daily) | effect on splenic or lymph node CD4 or CD8 T cells ([1]; mice) | toxicity in mice ([1]; mouse, in vivo) | MTD ([1]; mouse, in vivo, ip, 4 times per week, no more than 2 consecutive days) | tolerance of daily SC dosing ([1]; study day 3 to day 26, female C57BL/6 mice, FIG. 22) | OCR Inhibition [HCB] (uM) v vs. control (P < 0.05) (mm001) | effect on mitochondrial tubule networks (MCF-7 cells) | nuclear translocation of estrogen receptor (ER-α) (ERα) | Kd (CYP3A4) | parent metabolite peak area after 60 min (CYP2C8)
CCCCCCNC(=N)NC(=N)NCc1ccccc1 [HBB, N1-hexyl-N5-benzyl-biguanide] | not as well tolerated | well tolerated | 12 mg/kg | no observed effect | acceptable toxicity | 6 mg/kg | well tolerated |  |  |  |  | 
CCCCCCNC(=N)NC(=N)NCC12C3C4C5C3C1C5C42 (stereo not drawn) [HCB, Hexyl Cubanomethyl Biguanide] |  |  |  |  |  |  |  | 10 µM | caused loss of mitochondrial tubule networks | significantly decrease; also recorded: decreases nuclear translocation of ERα | 74 µM | 99.78%
